In paper PMC3950855 (British Journal of Cancer, 2014):
Values joined by “and” are separate entries in the source; they are usually repeats but may differ in a detail not shown here. Equal entries are not always repeated. Structures can show the parent of a compound that is named as a salt.

Tests used:
GIST = details: cited from earlier work
[1] = Plasma pharmacokinetics by LC/PDA; details: for IM trough levels (mean) / Cmax: 400 mg once daily; for Cmax: human, in vivo, im, 400 mg, IM Cmax (mean)
[2] = ref Verweij et al, 2004, Blanke et al, 2008a, 2008b
[3] = salvage treatment, ref Demetri et al, 2006, 2012

SMILES	median overall survival (GIST; [2]) [years]	patients with long-lasting responses (GIST; [2])	IM trough levels (mean) ([1]; with pan) [µM]	IM trough levels (mean) ([1]; with pan (combination therapy), ± s.e.m.)	IM trough levels (mean) ([1]; without pan) [µM]	IM trough levels (mean) ([1]; without pan (run-in), ± s.e.m.)	increase of the mean Cmax of IM ([1]; combination with panobinostat vs run-in, not statistically significant) [%]	Cmax ([1]; with pan) [µM]	Cmax ([1]; without pan (7-day run-in), ± s.e.m.) [ng/mL]	median time to progression (GIST; [3]) [months]	objective remissions (GIST; [3]) [%]
Cc1ccc(NC(=O)c2ccc(CN3CCN(C)CC3)cc2)cc1Nc1nccc(-c2cccnc2)n1 [IM, Imatinib mesylate]	5	82–86%	2.2	1290 ng ml^−1 and 1290 (±440) ng ml^−1	1.8	1085 ng ml^−1 and 1085 (±480) ng ml^−1	23	4.3	2070		
CNC(=O)c1cc(Oc2ccc(NC(=O)Nc3ccc(Cl)c(C(F)(F)F)c3)c(F)c2)ccn1 [regorafenib]										~6	4.5
